Test results published in ChEMBL document CHEMBL1201862, “PubChem BioAssay data set” (2004).
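Compound exposure: 48 hours, 5 concentrations, 96-well plates. GI50 = concentration required for 50% inhibition of growth.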 Activity calls are given as the source filed them. No stated cut-off is given here; in the data, active = GI50 up to about 1.1 µM and inactive = higher.

How the values were obtained:
Experiment in all cases: growth of human tumour cells (NCI), 48 h
[1] = test system: HCT-116
[2] = test system: SF-295
[3] = test system: Malme-3M
[4] = test system: SF-539
[5] = test system: EKVX
[6] = test system: UACC-62
[7] = test system: MDA-N
[8] = test system: A549
[9] = test system: MOLT-4
[10] = test system: RPMI-8226
[11] = test system: U-251
[12] = test system: SK-MEL-2
[13] = test system: TK-10
[14] = test system: SR
[15] = test system: A498
[16] = test system: 786-0
[17] = test system: KM12
[18] = test system: HOP-62
[19] = test system: MDA-MB-231
[20] = test system: MDA-MB-435

SMILES	GI50 [1]	GI50 [2]	GI50 [3]	GI50 [4]	GI50 [5]	GI50 [6]	GI50 [7]	GI50 [8]	GI50 [9]	GI50 [10]	GI50 [11]	GI50 [12]	GI50 [13]	GI50 [14]	GI50 [15]	GI50 [16]	GI50 [17]	GI50 [18]	GI50 [19]	GI50 [20]
CCOC(=O)N1N(c2ccccc2)C(=O)C1(c1ccccc1)c1ccccc1	17.1 µM (inactive)	99.1 µM (inactive)	97.7 µM (inactive)	> 100 µM (inactive)	48.1 µM (inactive)	> 100 µM (inactive)	> 100 µM (inactive)	> 100 µM (inactive)	20.1 µM (inactive)	14.7 µM (inactive)	89.1 µM (inactive)	20.4 µM (inactive)	> 100 µM (inactive)	87.5 µM (inactive)	> 100 µM (inactive)	> 100 µM (inactive)	73.5 µM (inactive)	14.9 µM (inactive)	> 100 µM (inactive)	> 100 µM (inactive)
CCOC(=O)N1CCC2(CC1)CC(=O)N(Nc1ccccc1)C2=O	> 100 µM (inactive)	40.3 µM (inactive)	> 100 µM (inactive)	27.5 µM (inactive)	> 100 µM (inactive)	32.1 µM (inactive)	78.3 µM (inactive)	> 100 µM (inactive)	> 100 µM (inactive)	> 100 µM (inactive)	> 100 µM (inactive)	> 100 µM (inactive)	> 100 µM (inactive)	32.1 µM (inactive)	> 100 µM (inactive)	> 100 µM (inactive)	92.7 µM (inactive)	> 100 µM (inactive)	> 100 µM (inactive)	30.8 µM (inactive)
CN1C(=O)N(c2ccccc2)C2(CCN(CC3COc4ccccc4O3)CC2)C1=O (stereo not given)	96.8 µM (inactive)	> 100 µM (inactive)	> 100 µM (inactive)	> 100 µM (inactive)	> 100 µM (inactive)	> 100 µM (inactive)	> 100 µM (inactive)	> 100 µM (inactive)	65.9 µM (inactive)	99.1 µM (inactive)	> 100 µM (inactive)	> 100 µM (inactive)	> 100 µM (inactive)	> 100 µM (inactive)	> 100 µM (inactive)	85.3 µM (inactive)	> 100 µM (inactive)	> 100 µM (inactive)	> 100 µM (inactive)	> 100 µM (inactive)
CC(CCC#N)(CCC#N)C(=O)CC(O)(C(F)(F)F)C(F)(F)F	2.8 µM (inactive)	18.2 µM (inactive)	5.02 µM (inactive)	3.44 µM (inactive)	20.7 µM (inactive)	6.19 µM (inactive)	1.73 µM (inactive)	10.1 µM (inactive)	0.547 µM (active)	2.64 µM (inactive)	9.16 µM (inactive)	33.7 µM (inactive)	7.71 µM (inactive)	1.4 µM (inactive)	20.6 µM (inactive)	2.12 µM (inactive)	18.1 µM (inactive)	19.8 µM (inactive)	4.06 µM (inactive)	5.6 µM (inactive)
Cc1ccc2c(c1)C(=O)/C(=C\c1ccc(Cl)cc1)CCS2(=O)=O	1.65 µM (inactive)	4.21 µM (inactive)	2.07 µM (inactive)	2 µM (inactive)	11.3 µM (inactive)	3.15 µM (inactive)	4.81 µM (inactive)	4.06 µM (inactive)	1.85 µM (inactive)	2.34 µM (inactive)	3.38 µM (inactive)	19.4 µM (inactive)	2.1 µM (inactive)	1.66 µM (inactive)	12.4 µM (inactive)	1.69 µM (inactive)	2.66 µM (inactive)	6.67 µM (inactive)	3.58 µM (inactive)	4.35 µM (inactive)
O=N/N=c1\o[n-][n+](CCc2ccccc2)c1Cc1/c(=N/N=O)o[n-][n+]1CCc1ccccc1	50.1 µM (inactive)	25.6 µM (inactive)	24.2 µM (inactive)	20.7 µM (inactive)	50 µM (inactive)	51.2 µM (inactive)	80.9 µM (inactive)	> 100 µM (inactive)	> 100 µM (inactive)	43.1 µM (inactive)	22.1 µM (inactive)	29.6 µM (inactive)	25.2 µM (inactive)	31.2 µM (inactive)	46.8 µM (inactive)	20.2 µM (inactive)	78.2 µM (inactive)	23.2 µM (inactive)	33.9 µM (inactive)	39.7 µM (inactive)
COC(=O)[C@](C)(Cc1ccccc1)NC(=O)[C@@H](C)N1[C@@H](c2ccccc2)COC1(C)C	38.5 µM (inactive)	53 µM (inactive)	44.6 µM (inactive)	> 100 µM (inactive)	57.9 µM (inactive)	63.5 µM (inactive)	44.2 µM (inactive)	63.8 µM (inactive)	34.4 µM (inactive)	39.5 µM (inactive)	57.7 µM (inactive)	> 100 µM (inactive)	> 100 µM (inactive)	27.5 µM (inactive)	99.8 µM (inactive)	72.4 µM (inactive)	22.2 µM (inactive)	> 100 µM (inactive)	47 µM (inactive)	48.8 µM (inactive)
Cc1ccc(F)c2[nH]c(-c3ccccc3)cc(=O)c12	4.73 µM (inactive)	6.47 µM (inactive)	17.9 µM (inactive)	4.34 µM (inactive)	> 25.2 µM (inactive)	3.84 µM (inactive)	0.897 µM (active)	4.97 µM (inactive)	3.94 µM (inactive)	3.96 µM (inactive)	6.04 µM (inactive)	6.93 µM (inactive)	14.6 µM (inactive)	2.99 µM (inactive)	39.4 µM (inactive)	2.83 µM (inactive)	3.03 µM (inactive)	5.9 µM (inactive)	20.9 µM (inactive)	1.18 µM (inactive)
